Experimental data from patent US20240132431A1, “METHOD FOR ALKYLATING ACIDIC FUNCTIONAL GROUP” (Chugai Seiyaku Kabushiki Kaisha, priority 2021, published 2024).

Target: T1, Bcl-2 protein (Recombinant Human Bcl-2 Protein) (Homo sapiens, UniProt P10415)
T1 construct: purchased Novus NBP2-34889
Assay: Binding evaluation of mixture library compounds to Bcl-2 using AS-MS (affinity selection mass spectrometry)
Conditions: for ASMS ratio (%) n = 1: replicate n = 1; for ASMS ratio (%) n = 1 / ASMS ratio (%) n = 2: ASMS Ratio(%)=(A−C)/B×100; for ASMS ratio (%) n = 2: replicate n = 2
Outline: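 Bcl-2 binding is scored from LC/MS signal retained with protein through gel-filtration spin columns, normalised to unfiltered and protein-free controls. Incubation: 20 μM protein, […] per compound, 1 h, 23° C.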

[1] = AS-MS on the mixture of 1200 library compounds
[2] = AS-MS, mixture of 1200 compounds, Bcl-2

T1 sequence (P10415 whole entry): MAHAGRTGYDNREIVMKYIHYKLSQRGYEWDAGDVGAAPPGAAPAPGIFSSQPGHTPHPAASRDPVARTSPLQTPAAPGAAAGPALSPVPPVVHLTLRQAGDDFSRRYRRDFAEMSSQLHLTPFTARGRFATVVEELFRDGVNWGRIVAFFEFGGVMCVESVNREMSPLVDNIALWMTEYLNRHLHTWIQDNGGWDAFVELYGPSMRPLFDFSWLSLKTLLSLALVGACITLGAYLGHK

SMILES	ASMS ratio (%) (n = 1)	ASMS ratio (%) (n = 2)	ASMS ratio (%) n = 1 [1]	ASMS ratio (%) n = 2 [1]	other results
CCOc1cncc(-c2ccc(C(=O)N3CCN(c4ccc(C(=O)NS(=O)(=O)c5ccc(NCCSc6ccccc6)c([N+](=O)[O-])c5)nn4)CC3)c3ccccc23)c1 [B2Q014-01, 6-[4-[4-(5-Ethoxypyridin-3-yl)naphthalene-1-carbonyl]piperazin-1-yl]-N-[3-nitro-4-(2-phenylsulfanylethylamino)phenyl]sulfonylpyridazine-3-carboxamide]	–	–	–	–	ASMS ratio (%) n = 1 (AS-MS, mixture library, Bcl-2): 9.3%; ASMS ratio (%) n = 2 (AS-MS, mixture library, Bcl-2): 14.5%
CCOc1cccc(-c2ccccc2CN2CCN(c3ccc(C(=O)NS(C)(=O)=O)nn3)CC2)c1 [B2I071-01, 6-[4-[[2-(3-Ethoxyphenyl)phenyl]methyl]piperazin-1-yl]-N-methylsulfonylpyridazine-3-carboxamide]	−1.2%	−1.9%	–	–	–
CCOc1cncc(-c2ccc(CN3CCN(c4ccc(C(=O)NS(=O)(=O)CC56CC7CC(CC(C7)C5)C6)nn4)CC3)cc2C)c1 [B2A074-01, N-(1-Adamantylmethylsulfonyl)-6-[4-[[4-(5-ethoxypyridin-3-yl)-3-methylphenyl]methyl]piperazin-1-yl]pyridazine-3-carboxamide]	–	–	–	–	ASMS ratio (%) n = 1 (AS-MS, mixture library, Bcl-2): 9.2%; ASMS ratio (%) n = 2 (AS-MS, mixture library, Bcl-2): 1.9%
CCOc1cncc(-c2cc(C(=O)N3CCN(c4ccc(C(=O)N(CC)CC)cc4)CC3)cc(C(C)(C)C)c2)c1 [B4J038-01, 4-[4-[3-tert-Butyl-5-(5-ethoxypyridin-3-yl)benzoyl]piperazin-1-yl]-N,N-diethylbenzamide]	–	–	0.8%	0.0%	–
CCOc1cccc(-c2ccc(CN3CCN(c4ccc(C(=O)NCC56CC7CC(CC(C7)C5)C6)cc4)CC3)c(OC)c2)c1 [B1A053-01, N-(1-Adamantylmethyl)-4-[4-[[4-(3-ethoxyphenyl)-2-methoxyphenyl]methyl]piperazin-1-yl]benzamide]	–	–	–	–	ASMS ratio (%) n = 1 [2]: 13.2%; ASMS ratio (%) n = 2 [2]: 4.8%
CCOc1cccc(-c2ccc(CN3CCN(c4ccc(C(=O)Nc5ccc(OC)cc5)cc4)CC3)cc2F)c1 [B1O051-01, 4-[4-[[4-(3-Ethoxyphenyl)-3-fluorophenyl]methyl]piperazin-1-yl]-N-(4-methoxyphenyl)benzamide]	–	–	3.9%	−1.9%	–
CCOc1cccc(C#Cc2ccccc2C(=O)N2CCN(c3ccc(C(=O)NS(=O)(=O)C(C)(C)C)nn3)CC2)c1 [B2L007-01, N-tert-Butylsulfonyl-6-[4-[2-[2-(3-ethoxyphenyl)ethynyl]benzoyl]piperazin-1-yl]pyridazine-3-carboxamide]	0.0%	−1.0%	–	–	–
CCOc1cncc(-c2csc(CN3CCN(c4ccc(C(=O)NCC56CC7CC(CC(C7)C5)C6)nn4)CC3)c2)c1 [B1A094-01, N-(1-Adamantylmethyl)-6-[4-[[4-(5-ethoxypyridin-3-yl)thiophen-2-yl]methyl]piperazin-1-yl]pyridazine-3-carboxamide]	–	–	–	–	ASMS ratio (%) n = 1 [2]: 6.2%; ASMS ratio (%) n = 2 [2]: −0.7%
CCOc1cccc(-c2ccc(C(=O)N3CCN(c4ccc(C(=O)N(CC)CC)cc4)CC3)c3ccccc23)c1 [B4J035-01, 4-[4-[4-(3-Ethoxyphenyl)naphthalene-1-carbonyl]piperazin-1-yl]-N,N-diethylbenzamide]	–	–	4.1%	1.5%	–
CCOc1cccc(-c2csc(CN3CCN(c4ccc(C(=O)N(CC)CC)cc4)CC3)c2)c1 [B4J067-01, 4-[4-[[4-(3-Ethoxyphenyl)thiophen-2-yl]methyl]piperazin-1-yl]-N,N-diethylbenzamide]	–	–	–	–	ASMS ratio (%) n = 1 (AS-MS, mixture library, Bcl-2): −11.0%; ASMS ratio (%) n = 2 (AS-MS, mixture library, Bcl-2): −5.5%
CCOc1cncc(-c2cc(CN3CCN(c4ccc(C(=O)NCC56CC7CC(CC(C7)C5)C6)cc4)CC3)cc(C(F)(F)F)c2)c1 [B1A062-01, N-(1-Adamantylmethyl)-4-[4-[[3-(5-ethoxypyridin-3-yl)-5-(trifluoromethyl)phenyl]methyl]piperazin-1-yl]benzamide]	–	–	–	–	ASMS ratio (%) n = 1 [2]: −0.3%; ASMS ratio (%) n = 2 [2]: −9.7%
CCOc1cccc(-c2cc(OC)c(CN3CCN(c4ccc(C(=O)NS(=O)(=O)c5ccc(NCCSc6ccccc6)c([N+](=O)[O-])c5)nn4)CC3)c(OC)c2)c1 [B2Q085-01, 6-[4-[[4-(3-Ethoxyphenyl)-2,6-dimethoxyphenyl]methyl]piperazin-1-yl]-N-[3-nitro-4-(2-phenylsulfanylethylamino)phenyl]sulfonylpyridazine-3-carboxamide]	–	–	–	–	ASMS ratio (%) n = 1 (AS-MS, mixture library, Bcl-2): 14.9%; ASMS ratio (%) n = 2 (AS-MS, mixture library, Bcl-2): 0.7%
CCOc1cccc(-c2ccc(CN3CCN(c4ccc(C(=O)NS(=O)(=O)CC56CC7CC(CC(C7)C5)C6)nn4)CC3)c3ccccc23)c1 [B2A091-01, N-(1-Adamantylmethylsulfonyl)-6-[4-[[4-(3-ethoxyphenyl)naphthalen-1-yl]methyl]piperazin-1-yl]pyridazine-3-carboxamide]	–	–	–	–	ASMS ratio (%) n = 1 (AS-MS, mixture library, Bcl-2): −2.6%; ASMS ratio (%) n = 2 (AS-MS, mixture library, Bcl-2): 3.8%

Second part, led by results:

ASMS ratio (%) (n = 1)	ASMS ratio (%) (n = 2)	ASMS ratio (%) n = 1 [1]	ASMS ratio (%) n = 2 [1]	SMILES	other results
0.0%	0.0%	–	–	CCOc1cccc(-c2ccc(CN3CCN(c4ccc(C(=O)NS(C)(=O)=O)nn4)CC3)cc2C)c1 [B2I073-01, 6-[4-[[4-(3-Ethoxyphenyl)-3-methylphenyl]methyl]piperazin-1-yl]-N-methylsulfonylpyridazine-3-carboxamide]	–
–	–	2.8%	−0.7%	CCOc1cncc(-c2cc(C(=O)N3CCN(c4ccc(C(=O)Nc5ccc(OC)cc5)cc4)CC3)cc(C(C)(C)C)c2)c1 [B1O038-01, 4-[4-[3-tert-Butyl-5-(5-ethoxypyridin-3-yl)benzoyl]piperazin-1-yl]-N-(4-methoxyphenyl)benzamide]	–
–	–	3.9%	−18.6%	CCOc1cccc(-c2cc(CN3CCN(c4ccc(C(=O)N(C)CC56CC7CC(CC(C7)C5)C6)nn4)CC3)cc(OC(C)C)c2)c1 [B3A083-01, N-(1-Adamantylmethyl)-6-[4-[[3-(3-ethoxyphenyl)-5-propan-2-yloxyphenyl]methyl]piperazin-1-yl]-N-methylpyridazine-3-carboxamide]	–
4.1%	−0.5%	–	–	CCOc1cncc(-c2ccc(C(=O)N3CCN(c4ccc(C(=O)NS(=O)(=O)c5ccc(NCCSc6ccccc6)c(C(F)(F)F)c5)cc4)CC3)cc2F)c1 [B2R028-01, 4-[4-[4-(5-Ethoxypyridin-3-yl)-3-fluorobenzoyl]piperazin-1-yl]-N-[4-(2-phenylsulfanylethylamino)-3-(trifluoromethyl)phenyl]sulfonylbenzamide]	–
0.0%	0.0%	–	–	CCOc1cccc(C#Cc2cncc(C(=O)N3CCN(c4ccc(C(=O)NS(=O)(=O)C(C)(C)C)nn4)CC3)c2)c1 [B2L009-01, N-tert-Butylsulfonyl-6-[4-[5-[2-(3-ethoxyphenyl)ethynyl]pyridine-3-carbonyl]piperazin-1-yl]pyridazine-3-carboxamide]	–
–	–	1.7%	−1.5%	CCOc1cncc(-c2ccc(C(=O)N3CCN(c4ccc(C(=O)Nc5ccc(OC)cc5)cc4)CC3)cc2C)c1 [B1O026-01, 4-[4-[4-(5-Ethoxypyridin-3-yl)-3-methylbenzoyl]piperazin-1-yl]-N-(4-methoxyphenyl)benzamide]	–
0.3%	0.5%	–	–	CCOc1cncc(-c2ccc(C(=O)N3CCN(c4ccc(C(=O)NS(=O)(=O)C(C)(C)C)nn4)CC3)c3ccccc23)c1 [B2L014-01, N-tert-Butylsulfonyl-6-[4-[4-(5-ethoxypyridin-3-yl)naphthalene-1-carbonyl]piperazin-1-yl]pyridazine-3-carboxamide]	–
